Test results as given in patent publication US20240299385A1 (ReWind Therapeutics NV, priority 2021, published 2024).

Each compound was assayed against T1, human GPR17 receptor (Homo sapiens, UniProt Q13304) (assay: Calcium mobilization functional assay (Fluo-8, FLIPR TETRA) in HEK-293 hGPR17 (Gα-q assay)). Conditions: antagonism of MDL29,951 (~EC80) induced Ca2+ signal; cell line (HEK-293 hGPR17 or HEK-293 Suchi5 hGPR17) not given.
T1 construct: host or cells: HEK-293
Type: cell-based
How it was run: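 Fluo-8-loaded HEK-293 hGPR17 cells (60 min dye loading, room temperature) were preincubated with compound for twenty minutes, then challenged with agonist MDL29,951 at ~EC80, 500 nM. Intracellular calcium release via Gα-q was recorded as FLIPR fluorescence for a further 2 minutes; compounds tested in duplicate.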

T1 sequence (Q13304 whole entry): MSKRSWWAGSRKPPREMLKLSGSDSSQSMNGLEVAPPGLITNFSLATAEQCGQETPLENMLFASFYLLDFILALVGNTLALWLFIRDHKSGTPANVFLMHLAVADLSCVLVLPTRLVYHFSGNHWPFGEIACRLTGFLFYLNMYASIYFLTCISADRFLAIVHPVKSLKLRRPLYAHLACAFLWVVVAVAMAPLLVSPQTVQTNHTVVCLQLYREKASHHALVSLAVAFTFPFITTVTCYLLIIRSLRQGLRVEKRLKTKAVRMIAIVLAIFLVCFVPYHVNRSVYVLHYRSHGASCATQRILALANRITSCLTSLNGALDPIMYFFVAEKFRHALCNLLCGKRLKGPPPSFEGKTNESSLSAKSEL

Compound | IC50 [nM]
COc1ccnc(F)c1-c1cc(S(=O)(=O)Nc2cc(F)c(C(F)(F)F)cc2F)c[nH]1 [Cpd 247, N-[2,5-difluoro-4-(trifluoromethyl)phenyl]-5-(2-fluoro-4-methoxy-3-pyridyl)-1H-pyrrole-3-sulfonamide] | 500 to 5000
CCn1ccnc1-c1cc(S(=O)(=O)Nc2cc(F)c(C(F)(F)F)cc2F)c[nH]1 [Cpd 248, N-[2,5-difluoro-4-(trifluoromethyl)phenyl]-5-(1-ethylimidazol-2-yl)-1H-pyrrole-3-sulfonamide] | 500 to 5000
Cc1c(F)cccc1-c1cc(S(=O)(=O)Nc2ccc(C#N)cc2F)c[nH]1 [Cpd 249, N-(4-cyano-2-fluoro-phenyl)-5-(3-fluoro-2-methyl-phenyl)-1H-pyrrole-3-sulfonamide] | 500 to 5000
Cc1ccc(-c2cc(S(=O)(=O)Nc3ccc(C#N)cc3F)c[nH]2)c(Cl)c1 [Cpd 250, 5-(2-chloro-4-methyl-phenyl)-N-(4-cyano-2-fluoro-phenyl)-1H-pyrrole-3-sulfonamide] | 500 to 5000
COc1ccc(-c2cc(S(=O)(=O)Nc3ccc(C#N)cc3F)c[nH]2)c(C)c1 [Cpd 251, N-(4-cyano-2-fluoro-phenyl)-5-(4-methoxy-2-methyl-phenyl)-1H-pyrrole-3-sulfonamide] | 5000 to 50000
Cc1cccc(-c2cc(S(=O)(=O)Nc3ccc(C#N)cc3F)c[nH]2)c1C [Cpd 252, N-(4-cyano-2-fluoro-phenyl)-5-(2,3-dimethylphenyl)-1H-pyrrole-3-sulfonamide] | 500 to 5000
Cc1c(Cl)cccc1-c1cc(S(=O)(=O)Nc2ccc(C#N)cc2F)c[nH]1 [Cpd 253, 5-(3-chloro-2-methyl-phenyl)-N-(4-cyano-2-fluoro-phenyl)-1H-pyrrole-3-sulfonamide] | 500 to 5000
Cc1ccc(Cl)c(-c2cc(S(=O)(=O)Nc3ccc(C#N)cc3F)c[nH]2)c1 [Cpd 254, 5-(2-chloro-5-methyl-phenyl)-N-(4-cyano-2-fluoro-phenyl)-1H-pyrrole-3-sulfonamide] | 500 to 5000
Cc1cc(F)ccc1-c1cc(S(=O)(=O)Nc2ccc(C#N)cc2F)c[nH]1 [Cpd 255, N-(4-cyano-2-fluoro-phenyl)-5-(4-fluoro-2-methyl-phenyl)-1H-pyrrole-3-sulfonamide] | 500 to 5000
N#Cc1ccc(NS(=O)(=O)c2c[nH]c(-c3cc(F)ccc3Cl)c2)c(F)c1 [Cpd 256, 5-(2-chloro-5-fluoro-phenyl)-N-(4-cyano-2-fluoro-phenyl)-1H-pyrrole-3-sulfonamide] | < 500
COc1ccc(Cl)c(-c2cc(S(=O)(=O)Nc3ccc(C#N)cc3F)c[nH]2)c1 [Cpd 257, 5-(2-chloro-5-methoxy-phenyl)-N-(4-cyano-2-fluoro-phenyl)-1H-pyrrole-3-sulfonamide] | < 500
N#Cc1ccc(NS(=O)(=O)c2c[nH]c(-c3ccc(F)cc3Cl)c2)c(F)c1 [Cpd 258, 5-(2-chloro-4-fluoro-phenyl)-N-(4-cyano-2-fluoro-phenyl)-1H-pyrrole-3-sulfonamide] | < 500
COc1cc(-c2cc(S(=O)(=O)Nc3ccc(C#N)cc3F)c[nH]2)ccc1F [Cpd 259, N-(4-cyano-2-fluoro-phenyl)-5-(4-fluoro-3-methoxy-phenyl)-1H-pyrrole-3-sulfonamide] | 500 to 5000
N#Cc1ccc(NS(=O)(=O)c2c[nH]c(-c3cc(Cl)ccc3Cl)c2)c(F)c1 [Cpd 260, N-(4-cyano-2-fluoro-phenyl)-5-(2,5-dichlorophenyl)-1H-pyrrole-3-sulfonamide] | < 500
N#Cc1ccc(NS(=O)(=O)c2c[nH]c(-c3ccc(Cl)cc3Cl)c2)c(F)c1 [Cpd 261, N-(4-cyano-2-fluoro-phenyl)-5-(2,4-dichlorophenyl)-1H-pyrrole-3-sulfonamide] | 500 to 5000
Cc1cc(Cl)ccc1-c1cc(S(=O)(=O)Nc2ccc(C#N)cc2F)c[nH]1 [Cpd 262, 5-(4-chloro-2-methyl-phenyl)-N-(4-cyano-2-fluoro-phenyl)-1H-pyrrole-3-sulfonamide] | 500 to 5000
Cc1cccc(-c2cc(S(=O)(=O)Nc3ccc(C#N)cc3F)c[nH]2)c1Cl [Cpd 263, 5-(2-chloro-3-methyl-phenyl)-N-(4-cyano-2-fluoro-phenyl)-1H-pyrrole-3-sulfonamide] | 500 to 5000
Cc1ccc(-c2cc(S(=O)(=O)Nc3ccc(C#N)cc3F)c[nH]2)cc1F [Cpd 264, N-(4-cyano-2-fluoro-phenyl)-5-(3-fluoro-4-methyl-phenyl)-1H-pyrrole-3-sulfonamide] | 500 to 5000
COc1cccc(Cl)c1-c1cc(S(=O)(=O)Nc2ccc(C#N)cc2F)c[nH]1 [Cpd 265, 5-(2-chloro-6-methoxy-phenyl)-N-(4-cyano-2-fluoro-phenyl)-1H-pyrrole-3-sulfonamide] | 500 to 5000
COc1cccc(-c2cc(S(=O)(=O)Nc3ccc(C#N)cc3F)c[nH]2)c1Cl [Cpd 266, 5-(2-chloro-3-methoxy-phenyl)-N-(4-cyano-2-fluoro-phenyl)-1H-pyrrole-3-sulfonamide] | 5000 to 50000

More lines, now with the values ahead:

IC50 [nM] | Compound
< 500 | N#Cc1ccc(NS(=O)(=O)c2c[nH]c(-c3cccc(F)c3Cl)c2)c(F)c1 [Cpd 267, 5-(2-chloro-3-fluoro-phenyl)-N-(4-cyano-2-fluoro-phenyl)-1H-pyrrole-3-sulfonamide]
500 to 5000 | COc1ccc(C)c(-c2cc(S(=O)(=O)Nc3ccc(C#N)cc3F)c[nH]2)c1 [Cpd 268, N-(4-cyano-2-fluoro-phenyl)-5-(5-methoxy-2-methyl-phenyl)-1H-pyrrole-3-sulfonamide]
< 500 | Cc1cc(-c2cc(S(=O)(=O)Nc3ccc(C#N)cc3F)c[nH]2)ccc1F [Cpd 269, N-(4-cyano-2-fluoro-phenyl)-5-(4-fluoro-3-methyl-phenyl)-1H-pyrrole-3-sulfonamide]
500 to 5000 | N#Cc1ccc(NS(=O)(=O)c2c[nH]c(-c3c(Cl)cccc3Cl)c2)c(F)c1 [Cpd 270, N-(4-cyano-2-fluoro-phenyl)-5-(2,6-dichlorophenyl)-1H-pyrrole-3-sulfonamide]
< 500 | O=S(=O)(Nc1cc(F)c(OC(F)F)cc1F)c1c[nH]cc1Cc1ccccc1 [Cpd 271, 4-benzyl-N-[4-(difluoromethoxy)-2,5-difluoro-phenyl]-1H-pyrrole-3-sulfonamide]
< 500 | O=S(=O)(Nc1cc(F)c(C(F)(F)F)cc1F)c1c[nH]c(-c2cccs2)c1 [Cpd 272, N-[2,5-difluoro-4-(trifluoromethyl)phenyl]-5-(2-thienyl)-1H-pyrrole-3-sulfonamide]
< 500 | O=S(=O)(Nc1cc(F)c(C(F)(F)F)cc1F)c1c[nH]c(-c2ccsc2)c1 [Cpd 273, N-[2,5-difluoro-4-(trifluoromethyl)phenyl]-5-(3-thienyl)-1H-pyrrole-3-sulfonamide]
500 to 5000 | Cc1ccc(-c2cc(S(=O)(=O)Nc3cc(F)c(C(F)(F)F)cc3F)c[nH]2)s1 [Cpd 274, N-[2,5-difluoro-4-(trifluoromethyl)phenyl]-5-(5-methyl-2-thienyl)-1H-pyrrole-3-sulfonamide]
< 500 | O=S(=O)(Nc1cc(F)c(C(F)(F)F)cc1F)c1c[nH]c(-c2ccco2)c1 [Cpd 275, N-[2,5-difluoro-4-(trifluoromethyl)phenyl]-5-(2-furyl)-1H-pyrrole-3-sulfonamide]
< 500 | O=S(=O)(Nc1cc(F)c(C(F)(F)F)cc1F)c1c[nH]c(-c2ccoc2)c1 [Cpd 276, N-(2,5-difluoro-4-(trifluoromethyl)phenyl)-5-(furan-3-yl)-1H-pyrrole-3-sulfonamide]
500 to 5000 | Cn1cncc1-c1cc(S(=O)(=O)Nc2cc(F)c(C(F)(F)F)cc2F)c[nH]1 [Cpd 277, N-[2,5-difluoro-4-(trifluoromethyl)phenyl]-5-(3-methylimidazol-4-yl)-1H-pyrrole-3-sulfonamide]
< 500 | O=S(=O)(Nc1cc(F)c(C(F)(F)F)cc1F)c1c[nH]c(-c2ccsn2)c1 [Cpd 278, N-[2,5-difluoro-4-(trifluoromethyl)phenyl]-5-isothiazol-3-yl-1H-pyrrole-3-sulfonamide]
500 to 5000 | Cc1cccc(-c2cc(S(=O)(=O)Nc3cc(F)c(C(F)(F)F)cc3F)c[nH]2)n1 [Cpd 279, N-[2,5-difluoro-4-(trifluoromethyl)phenyl]-5-(6-methyl-2-pyridyl)-1H-pyrrole-3-sulfonamide]
500 to 5000 | Cc1ccc(-c2cc(S(=O)(=O)Nc3cc(F)c(C(F)(F)F)cc3F)c[nH]2)nc1 [Cpd 280, N-[2,5-difluoro-4-(trifluoromethyl)phenyl]-5-(5-methyl-2-pyridyl)-1H-pyrrole-3-sulfonamide]
< 500 | COc1cccc(-c2cc(S(=O)(=O)Nc3cc(F)c(C(F)(F)F)cc3F)c[nH]2)n1 [Cpd 281, N-[2,5-difluoro-4-(trifluoromethyl)phenyl]-5-(6-methoxy-2-pyridyl)-1H-pyrrole-3-sulfonamide]
5000 to 50000 | O=S(=O)(Nc1cc(F)c(C(F)(F)F)cc1F)c1c[nH]c(-c2ncccc2C(F)(F)F)c1 [Cpd 282, N-[2,5-difluoro-4-(trifluoromethyl)phenyl]-5-[3-(trifluoromethyl)-2-pyridyl]-1H-pyrrole-3-sulfonamide]
5000 to 50000 | COc1cccc(-c2cc(S(=O)(=O)Nc3ccc(C#N)cc3F)c[nH]2)c1C [Cpd 283, N-(4-cyano-2-fluoro-phenyl)-5-(3-methoxy-2-methyl-phenyl)-1H-pyrrole-3-sulfonamide]
500 to 5000 | N#Cc1ccc(NS(=O)(=O)c2c[nH]c(-c3ccc(F)c(Cl)c3)c2)c(F)c1 [Cpd 284, 5-(3-chloro-4-fluoro-phenyl)-N-(4-cyano-2-fluoro-phenyl)-1H-pyrrole-3-sulfonamide]
< 500 | Cc1ccc(F)cc1-c1cc(S(=O)(=O)Nc2ccc(C#N)cc2F)c[nH]1 [Cpd 285, N-(4-cyano-2-fluoro-phenyl)-5-(5-fluoro-2-methyl-phenyl)-1H-pyrrole-3-sulfonamide]
500 to 5000 | Cc1cc(NS(=O)(=O)c2c[nH]c(-c3ccccn3)c2)c(F)cc1C#N [Cpd 286, N-(4-cyano-2-fluoro-5-methyl-phenyl)-5-(2-pyridyl)-1H-pyrrole-3-sulfonamide]
